One block for each molecule: values may come before it.
Key:
Experiment in all cases: HPLC initial rates, Michaelis-Menten fit
HFM-RhaC = tested on: T1, HFM-RhaC; assay type: biochemical, metagenome: human feces; settings: 50 mM sodium phosphate pH 6.0, 37 °C, 5 min
T1 construct: recombinant in E. coli BL21(DE3), Ni-NTA purified
From the text: HPLC initial rates, Michaelis-Menten fit on HFM-RhaC

HFM-RhaA = tested on: T2, HFM-RhaA; assay type: biochemical, metagenome: human feces; settings: 50 mM sodium phosphate pH 6.0, 37 °C, 5 min
T2 construct: recombinant in E. coli BL21(DE3), Ni-NTA purified; catalytic residues Glu448 (acid) and Glu715 (base); AlphaFold2 model said to be in UniProt
From the text: HPLC initial rates, Michaelis-Menten fit on HFM-RhaA

HFM-Rha78 = tested on: T3, HFM-Rha78; assay type: biochemical, metagenome: human feces; settings: 50 mM sodium phosphate pH 6.5, 37 °C, 5 min
T3 construct: recombinant in E. coli BL21(DE3), Ni-NTA purified
From the text: HPLC initial rates, Michaelis-Menten fit on HFM-Rha78

[1] = substrate: COc1ccc([C@@H]2CC(=O)c3c(O)cc(O[C@@H]4O[C@H](CO[C@@H]5O[C@@H](C)[C@H](O)[C@@H](O)[C@H]5O)[C@@H](O)[C@H](O)[C@H]4O)cc3O2)cc1O; assay type: biochemical, Bacteroides thetaiotaomicron; settings: 50 mM sodium phosphate pH 6.5, 37 °C, 5 min
From the text: (§1) HPLC initial rates, Michaelis-Menten fit on BtRha78A

[2] = substrate: C[C@@H]1O[C@@H](OC[C@H]2O[C@@H](Oc3c(-c4ccc(O)c(O)c4)oc4cc(O)cc(O)c4c3=O)[C@H](O)[C@@H](O)[C@@H]2O)[C@H](O)[C@H](O)[C@H]1O; assay type: biochemical, Bacteroides thetaiotaomicron; settings: 50 mM sodium phosphate pH 6.5, 37 °C, 5 min
From the text: as §1

Molecule: COc1ccc([C@@H]2CC(=O)c3c(O)cc(O[C@@H]4O[C@H](CO[C@@H]5O[C@@H](C)[C@H](O)[C@@H](O)[C@H]5O)[C@@H](O)[C@H](O)[C@H]4O)cc3O2)cc1O [Hesperidin]
Km (HFM-RhaC): 2160 µM

Molecule: C[C@@H]1O[C@@H](OC[C@H]2O[C@@H](Oc3c(-c4ccc(O)c(O)c4)oc4cc(O)cc(O)c4c3=O)[C@H](O)[C@@H](O)[C@@H]2O)[C@H](O)[C@H](O)[C@H]1O [Rutin]
Km (HFM-RhaC): 5050 µM | Km (HFM-RhaA): 1240 µM

B1: BtRha78A (Bacteroides thetaiotaomicron VPI-5482) (protein)
chain: MILLGALSLASSTFAQTWIWYPGDYEIWLGNQMNNRRTERGAFFPPFWKTDSHYVVVEFSKVLNLSEPEEVFIAAEGTYNVKLDGKLQFGMPETLLLPAGKHSLNIKVWNQATPPTIYVKGKTVNSDSSWRVTYEDKEWIDESGKASDTSATIYMDAGCWNFDGATQRPSQFSLMREPQQPVAKTEQPEGGILYDFGKETFGFITLKNLSGKGKIDLYYGESPEEAKDKAYCETLDKLLLEPGQITDLAIRSTSPLHHSDNEYTLENSKAFRYVYITHEPEVQIGEVSMQYEYLPEEYRGNFRCNDEELNCIWEVGAYTMHLTTREFFIDGIKRDRWVWSGDAIQSYLMNYYLFFDSESVKRTIWLLRGKDPVTSHSNTIMDYTFYWFLSVYDYYMYSGDRHFVNQLYPRMQTMMDYVLGRTNKNGMVEGMSGDWVFVDWADGYLDKKGELSFEQVLFCRSLETMALCADLVGDKDGQQKYEKLASALKAKLEPTFWNNQKQAFVHNCVDGRQSDAVTRYANMFSVFFDYLNADKQQAIKQSVLLNDEILKITTPYMRFYELEALCALGEQETVMKEMKAYWGGMLKAGATSFWEKYNPEESGTQHLAMYGRPYGKSLCHAWGASPIYLLGKYYLGVKPTKEGYKEFAVSPVLGGLKWMEGTVPTPNGDIHVYMDNKTIKVKATEGKGYLTIQSRRQPKANMGTVEKVSEGVWRLWIDSPEERIVTYRL
notes: recombinant in E. coli BL21(DE3), Ni-NTA purified
Km [1]: 2780 µM | kcat [1]: 8.73 s⁻¹ | kcat/Km [1]: 3140 M⁻¹ s⁻¹ | Km [2]: 2380 µM | kcat [2]: 0.47 s⁻¹ | kcat/Km [2]: 200 M⁻¹ s⁻¹

More lines, now with the values ahead:

Km (HFM-RhaC): 2290 µM | Km (HFM-RhaA): 1920 µM | Km (HFM-Rha78): 5970 µM
Molecule: C[C@@H]1O[C@@H](O[C@H]2[C@H](Oc3cc(O)c4c(c3)O[C@H](c3ccc(O)cc3)CC4=O)O[C@H](CO)[C@@H](O)[C@@H]2O)[C@H](O)[C@H](O)[C@H]1O [Naringin]

Km (HFM-RhaC): 3250 µM | Km (HFM-RhaA): 530 µM | Km (HFM-Rha78): 3970 µM
Molecule: COc1ccc([C@@H]2CC(=O)c3c(O)cc(O[C@@H]4O[C@H](CO)[C@@H](O)[C@H](O)[C@H]4O[C@@H]4O[C@@H](C)[C@H](O)[C@@H](O)[C@H]4O)cc3O2)cc1O [Neohesperidin]

— publication PMC11901676, “Substrate Selectivities of GH78 α-L-Rhamnosidases from Human Gut Bacteria on Dietary Flavonoid Glycosides” (Molecules, 2025)
